According to US20150268219A1, “Method for Renal Transplantation” (Universite Paris Diderot Paris 7, priority 2014, published 2015):

What was measured:
Assay type in all cases: cell-based, C57BL/6 mice
[1] = test system: bone marrow-derived macrophages (BMM); experiment: Differentiation and TLR-agonist activation (CD86) of bone marrow-derived macrophages cultured with iron
Experimental: (§1) Bone Marrow derived macrophages (BMM) were prepared from the femur and tibias of C57BL/6 mice between 6 and 8 weeks of age. Bone marrow cells were cultured for 7-8 days at 37° C. and 5% CO2 in at 2×10^6 cells/ml in RPMI 1640 medium (Invitrogen) containing 10% FBS (v/v; Biowest), penicillin/streptomycin and 15% supernatant of L929 cells (v/v) as a source of M-CSF in the presence or in the absence of FeCl3-nitrilotriacetate (FeCl3-NTA; 10-60 μM as indicated). In some conditions, lipopolysaccharide (LPS) (150 ng/ml) (Sigma-Aldrich), peptidoglycan (PGN) (15 μg/ml), Poly-IC (50 μg/ml) (all from cayla-Invivogen, Toulouse, France) were added 12 hours before BBMs analysis on day 8.
Cells suspensions were prepared from cell culture or tissue and were incubated with anti-FcγR mAb 2.4G2 to block IgG receptors before cell staining for specific surface markers. Cells (1·10^6) were then stained at 4° C. in PBS containing 1% BSA with antibodies against mouse CD11b (M1/70, BioLegend), F4/80 (BM8, eBioscience), CD86 (GL-1, BioLegend), Ly6G (1A8, BD Biosciences), Ly6C (HK1.4, BioLegend). The presence of macrophages (CD11b^+F4/80^+Ly6G^− cells) in the peritoneum was analyzed by flow cytometry.

[2] = test system: bone marrow-derived macrophages (BMM); experiment: Cytokine production in culture supernatant of BMM stimulated with LPS; details: LPS-Fe-BMM vs LPS-BMM
Experimental: as §1
Kidney tissues were homogenized in 300 μl of RIPA buffer supplemented with phosphatase and protease inhibitors cocktail (Sigma-Aldrich) for 30 s. Samples were cooled on ice for 30 min. Lysates were finally centrifuged at 10 000 g at 4° C. The cytokines IL-6, TNF-α, MCP-1, IL-10 and IL-12 were measured simultaneously by cytometric bead array (CBA) using mouse inflammation kit (according to the manufacturer's instruction (BD biosciences). Results were analyzed using FCAP array software. Proteins were quantified in supernatants by the bicinchoninic acid (BCA) method according to the manufacturer's instructions (Pierce). Cytokine concentrations were normalized to total protein concentration and expressed as picograms per milligram of total tissue protein.

[3] = test system: bone marrow-derived macrophages (BMM); experiment: Comparative gene-chip analysis of macrophages treated or not with soluble iron and LPS; details: data not shown
Experimental: as §1
To further investigate whether iron load could influence macrophage activation, the inventors analyzed responses to TLR agonists. […] Increased iron levels in cultures promoted macrophage unresponsiveness to LPS both when it was added at the onset of cultures from primary bone marrow progenitors (day 0) or to cultures of almost completely differentiated cells (90% CD11b+ and F4/80+BMM; day 4) (data not shown). Thus, increased extracellular iron load impairs macrophage activation. To gain insight into the molecular mechanisms involved in iron load-dependent inhibition of macrophage inflammatory responses, the inventors performed comparative gene-chip analysis of macrophages treated or not with soluble iron (Fe-NTA, 60 μM) and subjected or not to LPS treatment. Venn diagram analysis from Affymetrix® microarray chips confirmed that the overall response to LPS differed between control (BMM) and iron-treated (Fe-BMM) macrophages (data not shown). Comparison Gene Ontology (GO) analysis was further performed to test the biological relevance of genes differing between these conditions.

[4] = test system: bone marrow-derived macrophages (BMM); experiment: Reactive oxygen species (ROS) assessment by DCFH fluorescence; details: BMM differentiated with 10 or 20 μM FeCl3-NTA for 7 days, LPS 150 ng/mL 3 hours; vs control macrophages
Experimental: as §1
Bone-marrow derived macrophages (BMM) were stimulated by LPS (150 ng/ml) to induce ROS production. After 3 hours, BMM were washed with PBS and 5 μM dichlorodihydrofluorescein-diacetate (DCFH-DA) was added and incubated for 20 min at 37° C. Cells were washed again and taken to flow cytometer to ROS analysis. FeCl3-NTA was used as mentioned before and NaOH was used as vehicle.

[5] = 60 μM, LPS-Fe-BMM compared to LPS-BMM

FeCl3-nitrilotriacetate [Fe-NTA]
CD86 up-regulation in response to TLR4 agonist (LPS) ([1]; BMM cultured with 20 or 60 μM iron, LPS 150 ng/mL overnight): not able to up-regulate CD86 | CD86 up-regulation in response to TLR2 agonist (PGN) ([1]; BMM cultured with 20 or 60 μM iron, PGN overnight): not able to up-regulate CD86 | CD86 up-regulation in response to TLR3 agonist (poly I:C) ([1]; BMM cultured with 20 or 60 μM iron, poly-IC overnight): not able to up-regulate CD86 | macrophage differentiation (cell morphology, CD11b and F4/80 expression) ([1]; BMM differentiated with 20 μM and 60 μM, data not shown): not affected | secretion of IL-6 [2]: impaired secretion | secretion of MCP-1 [2]: impaired secretion | secretion of TNF-α [2]: impaired secretion | genes implicated in inflammatory response [3, 5]: downregulated | genes involved in NF-κB responses [3, 5]: down-regulated | expression of genes involved in anti-oxidant responses ([3]; Fe-BMM compared to control cells): Increased expression | expression of genes characterizing M1 or M2 phenotypes ([3]; increased extracellular iron levels): inhibited | ROS responses to LPS stimulation [4]: impaired
